Data reported in ChEMBL document CHEMBL1142604, “Chamazulene carboxylic acid and matricin: a natural profen and its natural prodrug, identified through similarity to synthetic drug substances” (J Nat Prod, 2006).

Tests used:
Rattus norvegicus [1] = experiment: Antiinflammatory activity in rat assessed as inhibition of carrageenan-induced right paw edema at 300 mg/kg after 1 hr; format: functional
Rattus norvegicus [2] = experiment: Antiinflammatory activity in rat assessed as inhibition of carrageenan-induced right paw edema at 600 mg/kg after 1 hr; format: functional
Rattus norvegicus [3] = experiment: Antiinflammatory activity in rat assessed as inhibition of carrageenan-induced right paw edema at 600 mg/kg after 3 hrs; format: functional
[4] = Reduction in prostaglandin metabolite level in human urine at 500 mg, po; format: ADME; set-up: scale not given: the % may be the effect or the level left; settings: in vivo
[5] = Elimination half life in human at 500 mg, po; format: ADME, organism-based; settings: in vivo, read-out: beta t1/2 (converted)
Homo sapiens [6] = experiment: Absorption coefficient, Ka in human at 500 mg, po; format: ADME, organism-based; settings: in vivo
Mus musculus [7] = experiment: Antiinflammatory activity in mouse assessed as inhibition of phorbol […]-induced ear lobe edema at 1 umol/ear after 48 hrs relative to control; format: functional
Homo sapiens [8] = experiment: Plasma concentration in human at 500 mg, po after 75 to 90 mins; format: ADME, organism-based; settings: in vivo
[9] = Dissociation constant, pKa of the compound; format: physicochemical
[10] = Lipophilicity, log D at pH 7.4; format: physicochemical; settings: buffer
[11] = AUC (0 to infinity) in human at 500 mg, po; format: ADME, organism-based; set-up: dose 500 mg, time infinity, route oral; settings: plasma
[12] = Plasma concentration in human at 300 mg, po after 5 hrs; format: ADME, organism-based
Mus musculus [13] = experiment: Antiinflammatory activity in mouse assessed as inhibition of phorbol […]-induced ear lobe edema; format: functional; set-up: scale not given: the % may be the effect or the level left
[14] = Elimination constant, beta in human at 500 mg, po; format: ADME, organism-based; settings: in vivo
Homo sapiens [15] = experiment: Volume of distribution in human at 500 mg, po; format: ADME, organism-based; settings: in vivo
Mus musculus [16] = experiment: Antiinflammatory activity in mouse assessed as inhibition of phorbol […]-induced ear lobe edema at 0.1 umol/ear after 24 hrs relative to control; format: functional
Homo sapiens [17] = species: Homo sapiens; experiment: Plasma concentration in human by HPLC assay; format: ADME, organism-based; settings: in vivo
[18] = Tmax in human at 500 mg, po; format: ADME, organism-based; settings: in vivo
Mus musculus [19] = experiment: Antiinflammatory activity in mouse assessed as inhibition of phorbol […]-induced ear lobe edema at 1 umol/ear after 6 hrs relative to control; format: functional
Mus musculus [20] = experiment: Antiinflammatory activity in mouse assessed as inhibition of phorbol […]-induced ear lobe edema at 1 umol/ear after 24 hrs; format: functional
Mus musculus [21] = experiment: Antiinflammatory activity in mouse assessed as inhibition of phorbol […]-induced ear lobe edema at 0.1 umol/ear after 6 hrs relative to control; format: functional
[22] = target: T1, Prostaglandin G/H synthase 1 (Ovis aries) (UniProt P05979); experiment: Inhibition of ram COX1 at 50 uM
T1 sequence (whole entry): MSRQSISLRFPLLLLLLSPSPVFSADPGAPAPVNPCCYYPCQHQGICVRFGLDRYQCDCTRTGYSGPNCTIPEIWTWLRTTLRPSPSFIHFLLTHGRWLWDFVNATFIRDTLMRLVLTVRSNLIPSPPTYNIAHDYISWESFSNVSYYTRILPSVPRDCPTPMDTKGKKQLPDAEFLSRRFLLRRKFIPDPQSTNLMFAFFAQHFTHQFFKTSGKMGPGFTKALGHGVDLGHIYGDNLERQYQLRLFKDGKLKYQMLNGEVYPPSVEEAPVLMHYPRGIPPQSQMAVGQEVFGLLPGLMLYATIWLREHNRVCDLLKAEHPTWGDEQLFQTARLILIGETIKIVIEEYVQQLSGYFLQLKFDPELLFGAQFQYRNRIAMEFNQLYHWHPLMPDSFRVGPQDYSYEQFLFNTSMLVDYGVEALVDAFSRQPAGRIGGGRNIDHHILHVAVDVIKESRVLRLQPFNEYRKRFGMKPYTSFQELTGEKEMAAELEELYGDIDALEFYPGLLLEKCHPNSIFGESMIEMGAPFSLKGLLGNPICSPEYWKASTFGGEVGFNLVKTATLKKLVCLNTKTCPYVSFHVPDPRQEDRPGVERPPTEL

[23] = Cmax in human at 500 mg, po; format: ADME, organism-based; set-up: dose 500 mg, route oral; settings: in vivo
[24] = Plasma concentration in human at 300 mg, po after 2.5 hrs; format: ADME, organism-based
[25] = Plasma concentration in human at 300 mg, po after 25 hrs; format: ADME, organism-based
Mus musculus [26] = experiment: Antiinflammatory activity in mouse assessed as inhibition of phorbol […]-induced ear lobe edema at 0.1 umol/ear after 48 hrs relative to control; format: functional
[27] = Metabolic stability in artificial gastric fluid assessed as transformation to chamazulene carboxylic acid after 60 mins; format: physicochemical; settings: simulated gi fluid, 1 h

Question: For Cc1ccc([C@H](C)C(=O)OCOC(=O)C(C)(C)C)cc2c(C)ccc1-2, which inhibition in vivo at 300 mg/kg (Rattus norvegicus [1]) is on record?
Answer: The inhibition in vivo at 300 mg/kg was 34.8%.

Question: With COC(=O)[C@@H](C)c1ccc(C)c2ccc(C)c-2c1 as the compound, how does the inhibition in vivo at 300 mg/kg (Rattus norvegicus [1]) read?
Answer: Its inhibition in vivo at 300 mg/kg is 22.8%.

Question: What does the source list for CC(=O)Oc1ccccc1C(=O)O [ASPIRIN]?
Answer: inhibition in vivo at 600 mg/kg (Rattus norvegicus [2]): 92.4%; inhibition in vivo at 600 mg/kg (Rattus norvegicus [3]): 77.3%

Question: What does the source list for Cc1ccc([C@H](C)C(=O)O)cc2c(C)ccc1-2 [CHAMAZULENE CARBOXYLIC ACID]?
Answer: Activity [4]: 40%; half-life [5]: 4 h; Ka (Homo sapiens [6]): 0.53 h⁻¹; inhibition (INH) (Mus musculus [7]): 24%; Cp (Homo sapiens [8]): 900 ng/mL; pKa [9]: 4.14; logD [10]: 0.79; AUC(0-inf) [11]: 14700 ng·h/mL; concentration at 5 h [12]: 2400 ng/mL; Activity (Mus musculus [13]): 23%; k el [14]: 4.72e-05 s⁻¹; Vd (Homo sapiens [15]): 133 L; inhibition (INH) (Mus musculus [16]): 19%; Cp (Homo sapiens [17]): 100 ng/mL; Tmax [18]: 1.25 h; inhibition (INH) (Mus musculus [19]): 38%; inhibition (INH) (Mus musculus [20]): 14%; inhibition (INH) (Mus musculus [21]): 12%; inhibition [22]: 17.4%; Cmax [23]: 900 ng/mL; inhibition in vivo at 300 mg/kg (Rattus norvegicus [1]): 17.4%; concentration at 2.5 h [24]: 1700 ng/mL; concentration at 25 h [25]: 2900 ng/mL; inhibition (INH) (Mus musculus [26]): 35%

Question: With CC(C)Cc1ccc([C@H](C)C(=O)O)cc1 [DEXIBUPROFEN] as the compound, how does the logD [10] read?
Answer: The logD was 1.07.

Question: For CC(C(=O)O)c1ccc(-c2ccccc2)c(F)c1 (stereo not drawn) [FLURBIPROFEN], which pKa [9] is on record?
Answer: The pKa was 4.6.

Question: What about the logD [10] of the same compound?
Answer: Its logD is 0.85.

Question: Which Stability [27] does the source give for CC(=O)O[C@H]1CC(C)=C2C=C[C@@](C)(O)[C@@H]2[C@H]2OC(=O)[C@@H](C)[C@@H]21 [MATRICIN] here?
Answer: Its Stability is “Stable”.

Question: With COc1ccc2cc([C@H](C)C(=O)O)ccc2c1 [NAPROXEN] as the compound, how does the “inhibition (INH)” value (Mus musculus [7]) read?
Answer: Its value is 25%.

Question: What about the Activity (Mus musculus [13]) of the same compound?
Answer: Its Activity is 59%.

Question: And the “inhibition (INH)” value (Mus musculus [16])?
Answer: The value was 21%.

Question: What about the “inhibition (INH)” value (Mus musculus [19]) of the same compound?
Answer: Its value is 45%.

Question: And the “inhibition (INH)” value (Mus musculus [21])?
Answer: The value was 28%.

Question: And the “inhibition (INH)” value (Mus musculus [26])?
Answer: The value was 18%.
